Test results as given in ChEMBL document CHEMBL5696443 (Clin Cancer Res, 2016).
Calls of active or inactive are those of the source.

Experiments:
[1] = target: Tyrosine-protein kinase receptor TYRO3 (Homo sapiens) (UniProt Q06418); assay: Inhibition of human TYRO3 at 1 uM using poly (Glu, Tyr)4:1 as substrate in presence of [gamma33P]-ATP by HotSpot assay relative to control
[2] = target: Protein kinase C epsilon type (Homo sapiens) (UniProt Q02156); assay: Inhibition of human PKCepsilon at 1 uM using ERMRPRKRQGSVRRRV as substrate in presence of [gamma33P]-ATP by HotSpot assay relative to control
[3] = target: cGMP-dependent protein kinase 1 (Homo sapiens) (UniProt Q13976); assay: Inhibition of human PKG1b at 1 uM using LRRASLG as substrate in presence of [gamma33P]-ATP by HotSpot assay relative to control
[4] = tested on: NCI-H2228; assay: Antitumor activity against ALK positive human NCI-H2228 cells xenografted in SCID beige mouse assessed as inhibition of tumor growth administered orally once daily for 21 days; format: functional, cell-based; details: dose 10-50 mg/kg, route po, time 21.0 day
[5] = target: CDK7/Cyclin H/MNAT1 (Homo sapiens) (UniProt P51946+P50613+P51948); assay: Inhibition of human CDK7/CyclinH/MAT1 at 1 uM using MBP as substrate in presence of [gamma33P]-ATP by HotSpot assay relative to control; format: protein-complex assay
[6] = target: Serine/threonine-protein kinase 4 (Homo sapiens, UniProt Q13043); assay: Inhibition of human STK4 using KKSRGDYMTMQIG as substrate in presence of [gamma33P]-ATP by HotSpot assay
[7] = target: Dual specificity tyrosine-phosphorylation-regulated kinase 2 (Homo sapiens) (UniProt Q92630); assay: Inhibition of human DYRK2 at 1 uM using RRRFRPASPLRGPPK as substrate in presence of [gamma33P]-ATP by HotSpot assay relative to control
[8] = tested on: KARPAS-299; assay: Inhibition of ERK phosphorylation in ALK-positive human KARPAS-299 cells at 1 to 1000 nM incubated for 1 hrs by immunoblot analysis; format: cell-based; details: dose 1-1000 nM
[9] = target: Casein kinase I isoform alpha (Homo sapiens) (UniProt P48729); assay: Inhibition of human CSNK1A1 at 1 uM using KRRRAL[pS]VASLPGL as substrate in presence of [gamma33P]-ATP by HotSpot assay relative to control
[10] = target: Casein kinase I isoform epsilon (Homo sapiens) (UniProt P49674); assay: Inhibition of human CK1epsilon at 1 uM using KRRRAL[pS]VASLPGL as substrate in presence of [gamma33P]-ATP by HotSpot assay relative to control
[11] = target: Proto-oncogene tyrosine-protein kinase receptor Ret (Homo sapiens, UniProt P07949, V804L); assay: Inhibition of human RET V804L mutant using RRRRRRRRRRRVYSTDYYRLFNPS as substrate in presence of [gamma33P]-ATP by HotSpot assay
[12] = target: Tyrosine-protein kinase Mer (Homo sapiens, UniProt Q12866); assay: Inhibition of human MERTK using poly (Glu, Tyr)4:1 as substrate in presence of [gamma33P]-ATP by HotSpot assay
Tyrosine-protein kinase Mer, sequence (Q12866 whole entry, the tested form may be a part): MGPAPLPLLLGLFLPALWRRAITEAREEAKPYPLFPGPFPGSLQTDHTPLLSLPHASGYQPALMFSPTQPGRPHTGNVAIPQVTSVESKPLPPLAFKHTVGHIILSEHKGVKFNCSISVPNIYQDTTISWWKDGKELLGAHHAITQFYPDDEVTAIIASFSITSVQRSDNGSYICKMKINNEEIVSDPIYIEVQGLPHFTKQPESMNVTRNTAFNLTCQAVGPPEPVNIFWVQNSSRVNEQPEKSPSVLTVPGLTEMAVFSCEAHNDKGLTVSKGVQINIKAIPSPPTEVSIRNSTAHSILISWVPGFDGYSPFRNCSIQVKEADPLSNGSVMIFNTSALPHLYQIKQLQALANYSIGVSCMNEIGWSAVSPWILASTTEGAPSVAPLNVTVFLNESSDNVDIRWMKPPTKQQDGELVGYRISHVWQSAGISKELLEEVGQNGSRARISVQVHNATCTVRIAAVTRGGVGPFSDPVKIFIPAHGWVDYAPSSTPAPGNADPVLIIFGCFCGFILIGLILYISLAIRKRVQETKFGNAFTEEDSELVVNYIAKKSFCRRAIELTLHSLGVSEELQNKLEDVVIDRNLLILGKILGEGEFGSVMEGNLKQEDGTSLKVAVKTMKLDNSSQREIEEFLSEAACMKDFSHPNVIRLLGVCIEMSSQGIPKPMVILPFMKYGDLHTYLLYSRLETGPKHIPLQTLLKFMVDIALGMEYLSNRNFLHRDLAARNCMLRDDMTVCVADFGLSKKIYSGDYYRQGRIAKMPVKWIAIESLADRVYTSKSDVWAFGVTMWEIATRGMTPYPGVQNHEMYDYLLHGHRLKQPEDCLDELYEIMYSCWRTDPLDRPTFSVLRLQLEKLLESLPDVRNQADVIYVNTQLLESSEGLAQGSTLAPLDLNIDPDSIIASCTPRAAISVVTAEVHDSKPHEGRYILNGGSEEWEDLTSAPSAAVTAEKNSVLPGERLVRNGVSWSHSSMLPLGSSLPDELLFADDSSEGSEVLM

[13] = target: Discoidin domain-containing receptor 2 (Homo sapiens) (UniProt Q16832); assay: Inhibition of human DDR2 at 1 uM using KKSRGDYMTMQIG as substrate in presence of [gamma33P]-ATP by HotSpot assay relative to control
Discoidin domain-containing receptor 2 (Homo sapiens), sequence (Q16832 whole entry, the tested form may be a part): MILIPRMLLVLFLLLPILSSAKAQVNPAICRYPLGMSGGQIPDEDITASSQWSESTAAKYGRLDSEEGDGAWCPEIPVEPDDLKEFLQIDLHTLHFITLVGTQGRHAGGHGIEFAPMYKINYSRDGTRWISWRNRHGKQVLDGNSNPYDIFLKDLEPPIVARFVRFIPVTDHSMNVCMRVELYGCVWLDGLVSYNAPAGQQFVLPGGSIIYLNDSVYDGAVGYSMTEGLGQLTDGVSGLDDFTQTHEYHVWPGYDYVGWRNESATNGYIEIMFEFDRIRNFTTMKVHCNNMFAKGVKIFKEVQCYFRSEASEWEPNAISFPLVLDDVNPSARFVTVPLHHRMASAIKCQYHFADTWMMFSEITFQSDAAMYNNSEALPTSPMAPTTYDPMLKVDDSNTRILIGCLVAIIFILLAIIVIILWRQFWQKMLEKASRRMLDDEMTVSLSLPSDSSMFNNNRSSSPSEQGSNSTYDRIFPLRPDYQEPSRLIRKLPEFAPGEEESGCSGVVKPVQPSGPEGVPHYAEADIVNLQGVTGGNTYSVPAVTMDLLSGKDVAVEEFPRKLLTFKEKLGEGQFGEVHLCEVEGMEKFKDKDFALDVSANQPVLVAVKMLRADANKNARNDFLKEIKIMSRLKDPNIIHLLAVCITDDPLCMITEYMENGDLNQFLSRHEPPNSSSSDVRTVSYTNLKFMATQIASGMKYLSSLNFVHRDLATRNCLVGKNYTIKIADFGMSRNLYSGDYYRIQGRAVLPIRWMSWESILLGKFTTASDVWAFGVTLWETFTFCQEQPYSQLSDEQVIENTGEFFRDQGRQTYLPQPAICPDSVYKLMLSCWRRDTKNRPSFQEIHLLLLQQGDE

[14] = tested on: Serine/threonine-protein kinase A-Raf (Homo sapiens), P10398 [Y301D,Y302D]; assay: Inhibition of human ARAF Y301D/Y302D double mutant at 1 uM using MEK1 as substrate in presence of [gamma33P]-ATP by HotSpot assay relative to control
[15] = target: Protein kinase C delta type (Homo sapiens) (UniProt Q05655); assay: Inhibition of human PRKCD at 1 uM using ERMRPRKRQGSVRRRV as substrate in presence of [gamma33P]-ATP by HotSpot assay relative to control
Protein kinase C delta type (Homo sapiens), sequence (Q05655 whole entry, looked up): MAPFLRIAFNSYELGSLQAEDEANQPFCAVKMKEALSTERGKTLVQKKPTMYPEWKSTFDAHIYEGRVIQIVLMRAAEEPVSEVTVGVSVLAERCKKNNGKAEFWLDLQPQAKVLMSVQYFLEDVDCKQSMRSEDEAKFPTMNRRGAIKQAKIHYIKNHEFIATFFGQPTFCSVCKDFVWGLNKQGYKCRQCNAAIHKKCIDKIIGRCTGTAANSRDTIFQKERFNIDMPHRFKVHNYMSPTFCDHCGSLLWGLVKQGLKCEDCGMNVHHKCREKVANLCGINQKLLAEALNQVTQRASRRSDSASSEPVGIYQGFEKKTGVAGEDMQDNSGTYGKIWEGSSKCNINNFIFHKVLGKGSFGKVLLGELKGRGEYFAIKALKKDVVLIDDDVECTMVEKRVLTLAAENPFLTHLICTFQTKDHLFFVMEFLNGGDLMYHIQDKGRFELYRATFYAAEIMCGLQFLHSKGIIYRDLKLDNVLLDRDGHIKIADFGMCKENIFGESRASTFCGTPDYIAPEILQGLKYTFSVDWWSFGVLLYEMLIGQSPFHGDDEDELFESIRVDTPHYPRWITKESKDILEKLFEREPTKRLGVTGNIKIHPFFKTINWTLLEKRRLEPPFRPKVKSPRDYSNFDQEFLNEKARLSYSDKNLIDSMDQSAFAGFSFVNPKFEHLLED

[16] = target: Serine/threonine-protein kinase WNK3 (Homo sapiens) (UniProt Q9BYP7); assay: Inhibition of human WNK3 at 1 uM using MBP as substrate in presence of [gamma33P]-ATP by HotSpot assay relative to control
[17] = target: Ephrin type-A receptor 8 (Homo sapiens) (UniProt P29322); assay: Inhibition of human EPHA8 at 1 uM using poly (Glu, Tyr)4:1 as substrate in presence of [gamma33P]-ATP by HotSpot assay relative to control
[18] = target: Receptor tyrosine-protein kinase erbB-4 (Homo sapiens, UniProt Q15303); assay: Inhibition of human ERBB4 using poly (Glu, Tyr)4:1 as substrate in presence of [gamma33P]-ATP by HotSpot assay
[19] = Average plasma concentration in CB-17/SCID mouse implanted with mouse BaF3 cells expressing EML4-ALK G1202R mutant at 50 mg/kg, po administered once daily for 7 days by LC-MS/MS analysis; format: ADME, organism-based; details: in vivo, 168 h, time 7 day
[20] = tested on: EML4-ALK (Homo sapiens), Q9UM73+Q9HC35 [F1174V]; details: BaF3, time 3-5 weeks
[21] = target: Tyrosine-protein kinase Tec (Homo sapiens) (UniProt P42680); assay: Inhibition of human TEC at 1 uM using poly (Glu, Tyr)4:1 as substrate in presence of [gamma33P]-ATP by HotSpot assay relative to control
[22] = tested on: EML4-ALK (Homo sapiens), Q9UM73+Q9HC35 [G1202R]; details: BaF3, dose 500.0 nmol/L, time 3-5 weeks
[23] = target: MAP kinase-activated protein kinase 3 (Homo sapiens) (UniProt Q16644); assay: Inhibition of human MAPKAPK3 at 1 uM using KKLNRTLSVA as substrate in presence of [gamma33P]-ATP by HotSpot assay relative to control
MAP kinase-activated protein kinase 3 (Homo sapiens), sequence (Q16644 whole entry, looked up): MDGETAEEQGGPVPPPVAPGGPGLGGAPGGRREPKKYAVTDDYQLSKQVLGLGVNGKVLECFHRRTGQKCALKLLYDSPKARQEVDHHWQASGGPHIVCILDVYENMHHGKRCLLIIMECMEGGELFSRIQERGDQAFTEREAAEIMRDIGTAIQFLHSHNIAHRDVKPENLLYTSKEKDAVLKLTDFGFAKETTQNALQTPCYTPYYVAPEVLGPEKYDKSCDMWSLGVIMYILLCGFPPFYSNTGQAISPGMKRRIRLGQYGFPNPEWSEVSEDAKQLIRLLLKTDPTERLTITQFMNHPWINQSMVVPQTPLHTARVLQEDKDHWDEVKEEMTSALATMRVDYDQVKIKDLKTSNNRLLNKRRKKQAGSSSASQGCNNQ

[24] = target: Tyrosine-protein kinase SYK (Homo sapiens) (UniProt P43405); assay: Inhibition of human SYK at 1 uM using poly (Glu, Tyr)4:1 as substrate in presence of [gamma33P]-ATP by HotSpot assay relative to control
[25] = target: Ephrin type-B receptor 1 (Homo sapiens, UniProt P54762); assay: Inhibition of human EPHB1 using poly (Glu, Tyr)4:1 as substrate in presence of [gamma33P]-ATP by HotSpot assay
Ephrin type-B receptor 1, sequence (P54762 whole entry): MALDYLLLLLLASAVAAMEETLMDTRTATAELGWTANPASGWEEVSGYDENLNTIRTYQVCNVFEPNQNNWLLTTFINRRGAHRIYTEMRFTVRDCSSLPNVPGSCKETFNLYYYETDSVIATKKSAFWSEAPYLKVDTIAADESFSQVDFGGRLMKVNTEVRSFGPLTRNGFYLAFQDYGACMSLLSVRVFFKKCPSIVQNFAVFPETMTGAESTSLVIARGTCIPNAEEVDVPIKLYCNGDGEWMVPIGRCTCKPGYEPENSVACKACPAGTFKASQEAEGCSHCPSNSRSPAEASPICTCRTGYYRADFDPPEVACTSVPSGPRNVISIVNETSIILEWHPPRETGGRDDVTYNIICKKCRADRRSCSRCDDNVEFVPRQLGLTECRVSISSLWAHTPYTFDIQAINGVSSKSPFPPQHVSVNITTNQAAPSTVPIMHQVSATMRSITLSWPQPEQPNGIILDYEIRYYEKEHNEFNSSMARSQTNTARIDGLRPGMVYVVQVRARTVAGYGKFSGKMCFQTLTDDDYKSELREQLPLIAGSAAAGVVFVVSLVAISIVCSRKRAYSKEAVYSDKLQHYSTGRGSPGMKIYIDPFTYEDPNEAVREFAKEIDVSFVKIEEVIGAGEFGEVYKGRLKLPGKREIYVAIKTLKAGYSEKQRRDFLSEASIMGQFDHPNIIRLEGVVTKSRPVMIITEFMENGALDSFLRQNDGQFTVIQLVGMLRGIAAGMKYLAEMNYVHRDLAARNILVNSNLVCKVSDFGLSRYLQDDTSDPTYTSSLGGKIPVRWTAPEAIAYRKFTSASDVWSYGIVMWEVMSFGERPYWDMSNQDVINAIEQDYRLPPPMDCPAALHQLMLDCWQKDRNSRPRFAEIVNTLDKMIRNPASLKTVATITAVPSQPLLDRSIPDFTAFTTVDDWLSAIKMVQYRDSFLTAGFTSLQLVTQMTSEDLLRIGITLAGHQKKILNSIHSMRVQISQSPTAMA

[26] = target: CDK9/cyclin T1 (Homo sapiens) (UniProt O60563+P50750); assay: Inhibition of human CDK9/CyclinT1 at 1 uM using KTFCGTPEYLAPEVRREPRILSEEEQEMFRDFDYIADWC as substrate in presence of [gamma33P]-ATP by HotSpot assay relative to control; format: protein-complex assay
[27] = target: Ribosomal protein S6 kinase alpha-2 (Homo sapiens, UniProt Q15349); assay: Inhibition of human RPS6kA2 using KKLNRTLSVA as substrate in presence of [gamma33P]-ATP by HotSpot assay

Tyrosine-protein kinase receptor TYRO3 (Homo sapiens), sequence (Q06418 whole entry): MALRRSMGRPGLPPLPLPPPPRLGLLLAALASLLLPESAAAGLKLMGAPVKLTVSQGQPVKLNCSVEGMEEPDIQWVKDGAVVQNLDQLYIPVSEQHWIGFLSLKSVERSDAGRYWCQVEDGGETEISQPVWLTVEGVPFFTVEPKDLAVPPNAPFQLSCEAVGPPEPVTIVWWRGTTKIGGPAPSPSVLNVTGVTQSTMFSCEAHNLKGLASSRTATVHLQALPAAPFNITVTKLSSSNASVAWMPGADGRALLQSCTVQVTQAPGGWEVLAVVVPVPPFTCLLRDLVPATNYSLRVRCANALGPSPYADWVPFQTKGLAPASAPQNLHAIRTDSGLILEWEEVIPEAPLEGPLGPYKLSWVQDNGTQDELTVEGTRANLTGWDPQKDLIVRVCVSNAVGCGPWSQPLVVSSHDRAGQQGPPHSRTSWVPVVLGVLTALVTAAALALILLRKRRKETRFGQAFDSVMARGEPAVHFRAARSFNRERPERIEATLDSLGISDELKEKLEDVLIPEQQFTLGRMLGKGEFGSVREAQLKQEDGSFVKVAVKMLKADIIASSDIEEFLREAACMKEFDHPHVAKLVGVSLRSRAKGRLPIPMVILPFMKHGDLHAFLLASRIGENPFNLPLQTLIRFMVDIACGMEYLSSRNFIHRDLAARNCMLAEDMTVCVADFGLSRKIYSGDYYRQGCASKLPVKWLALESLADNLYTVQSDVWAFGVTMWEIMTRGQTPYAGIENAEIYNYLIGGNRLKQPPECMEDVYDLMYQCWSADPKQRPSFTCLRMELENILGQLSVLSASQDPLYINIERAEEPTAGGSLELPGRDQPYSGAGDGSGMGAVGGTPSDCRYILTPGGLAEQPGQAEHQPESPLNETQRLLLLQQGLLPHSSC

COc1cc(N2CCC(N3CCN(C)CC3)CC2)ccc1Nc1ncc(Cl)c(Nc2ccccc2P(C)(C)=O)n1 [BRIGATINIB]
active: Activity [4] Dose-Dependent Effect | inhibition [8] | inhibition [22]
> 1000 nM: IC50 [6] | IC50 [12] | IC50 [25]
5.151 µM: Cave [19]
27 nM: IC50 [11] | IC50 [18]
13 nM: IC50 [27]
195 nM: IC90 [20]
< 90%: inhibition [1] | inhibition [2] | inhibition [3] | inhibition [5] | inhibition [7] | inhibition [9] | inhibition [10] | inhibition [13] | inhibition [14] | inhibition [15] | inhibition [16] | inhibition [17] | inhibition [21] | inhibition [23] | inhibition [24] | inhibition [26]
